Measured values from patent publication US3971814A, “Benzo(b)thiophene derivatives” (priority 1972, dated 1976).
Where two headings read alike, the source gives them in different places.

Experiments:
[1] = Summary: calculated ED50 and therapeutic ratio; type: in vivo, rat
Protocol: From the ED50 and LD50 (A) the following therapeutic ratios for this test are calculated: […]

[2] = tested on: Carrageenin Edema of the Rat Paw; experiment: Carrageenin edema of the rat paw; type: in vivo
Protocol: test animals used are the same as stated under Example B and up to the initial measurement, the procedure corresponded to that described under this example.
After an initial measurement, the test substances are administered and after 60 minutes a 1% Carrageenin suspension is injected subplantarly (0.1 ml/paw). After 60 and 180 minutes the paw volume is again determined. Here, too, the blank control group was treated with the carrier alone.
The increase in the volume of the paw after 60 minutes is considered as the first phase of the biphase edema and that after 180 minutes, as compared to the 60-minute-value, as the second phase. Moreover, the total increase of the paw edema within 180 minutes, as compared to the initial value, is also determined.
Determination of the influence exerted by the substances upon the development of the paw edema and calculation of the ED50 are done as under Example B.

[3] = tested on: male mice (NMRI); experiment: Hot-plate test (analgesia); type: in vivo; conditions: mouse, i.g.
Protocol: male mice (NMRI) weighing 18 to 28 g are used as test animals. The animals are placed on a copper plate constantly kept at 55°C, and the time is measured until they lick their forepaws.
Following 3 initial measurements, the test substances are administered intragastrically. Afterwards the measurements are repeated over a period of 2 hours at intervals of 30 minutes. Each dose is administered to 10 animals selected from groups of 15 animals following the initial measurements.
The test substances are administered as a suspension in 1% Tragacanth mucilage, the volume of liquid amounting to 2 ml/100 g of body weight.
For the purpose of statistical evaluation according to Litchfield and Wilcoxon, those animals in which the reaction time has been extended by at least 100% are considered protected.

[4] = tested on: Yeast Edema of the Rat Paw; experiment: Yeast edema and determination of pain threshold in the rat paw; type: in vivo; conditions: 3 h; for Volume (increase in paw volume, blank control = 100%) / Pain Threshold (change vs initial value): i.g.
Protocol: test animals are male rats (SIV 50) weighing 100 to 180 g. […] 10 animals belonged to each dosage group.
The volume of the paw is determined according to the method described by Enders and Heidbrink, the pain threshold according to that described by Randall and Selitto (Arch. Int. Pharmacodyn CXI: 409, 1957).
Following initial measurements, […] of a 5% suspension of dried yeast is injected subplantarly into the right paw and the test substances are administered immediately. The blank control group is given Tragacanth mucilage only. After 3 hours the pain threshold and the volume of the paw are determined again.
The mean value of the increase in paw volume of the animals of the blank control after 3 hours is rated 100%, and the mean value of the increase in paw volume of the animals of the substance groups expressed as a percentage thereof. Pain threshold after 3 hours reflects the increase or decrease in percent, compared to the initial value.
In order to be able to calculate the ED50 according to the method by Lichtfield and Wilcoxon (J.P.E.T. 96:99, 1949), those animals in a dose group are considered protected when the paw swelling was at least 40% less than that of the blank control.

[5] = tested on: Granulation Tissue; experiment: Cotton-pellet test (granulation tissue); type: in vivo; conditions: rat; for Granulation Tissue % (Dry Weight) / Increase in Body Weight: i.g.
Protocol: test animals are male rats (SIV 50) weighing 110 to 200 g. All test animals are kept fasting for 16 to 18 hours prior to the implantation of the pellets; after that food and water were available ad libitum. Each dose level of the chemical tested was administered to 12 animals. The substances were suspended in 1% Tragacanth mucilage and administered intragastrically by means of a stomach tube. The substances to be investigated and the control suspensions are administered once on the operating day following operation, and twice a day on the following 6 days (at intervals of 6 to 8 hours). The type of application and volume of liquid corresponded to that under B.
Under light ether anesthesia 4 sterile cotton pellets were implanted under the skin on the back of the animal. The weight of one pellet was 50 mg ± 0.5 mg. After 7 days treatment, the animals were sacrificed, the pellets removed with the granulation tissue, weighed and then dried in the incubator at +80°C to constant weight. The average dry weight of the granulation tissue of the control group was rated 100%, and deviations of the mean weights of the group treated with the test substance determined as a percentage thereof.
The weight of the animals is measured daily throughout the tests, and the percental increase determined. At the end of some tests, moreover, the suprarenal glands are removed and their weight determined.

[6] = tested on: Kaolin Edema of the Rat Paw; experiment: Kaolin edema of the rat paw; type: in vivo; conditions: for 60 min. (paw edema) / 120 min. (paw edema) / 180 min. (paw edema): ig., section K
Protocol: test animals used are the same as stated under Example B and up to the beginning of the test, the procedure corresponded to that described under this example.
After an initial measurement, a sterile 25% kaolin suspension was injected (0.05 ml/paw) subplantarly. The test substances are administered immediately, and after 60, 120, and 180 minutes the paw volume is again determined.
Evaluation of the tests was performed as stated under Example C, and the results so obtained presented below: […]

[7] = tested on: Granuloma Pouch; experiment: Granuloma pouch test; type: in vivo; conditions: rat
Protocol: Under light ether anesthesia 25 ml of air are injected under the shaved skin of the back. 0.5 ml of croton oil/animal (0.05%) are injected into the pouch formed by the air, and evenly distributed over the back by turning the animal.
On the third day croton oil (3%, 0.5 ml/animal) is again injected into this pouch.
The average dry weights of the granuloma pouches and the quantities of secretion of the groups subjected to treatment are then compared with those of the control group and the percental deviations calculated.
At the end of some tests the suprarenal glands are removed and the weight of these organs is also determined.
The weight of the animals is measured daily and the changes determined as a percentage.

[8] = tested on: Arthritis Induced by the Freund Adjuvant; experiment: Adjuvant arthritis; type: in vivo; conditions: rat, i.g., 2 × 250.0 mg/kg
Protocol: test animals used are the same as described under Example E; food and water is given ad libitum.
On the first day of the test a 0.8% suspension of Mycobacterium butyrium in paraffin (0.05 or 0.1 ml/paw) is injected subplantarly into the left hind paw of the animals. […] From the 19th to the 22nd day the animals showing a reaction are treated intragastrically with the test substances. The right paw having been marked above the ankle-joint, the volume is determined daily from the 19th to the 22nd or 23rd day, according to the process described under Example B.
The volume of liquid, as well as of the carrier administered, corresponded to that described in the above tests.

[9] = in vivo; conditions: mouse
[10] = ig., 2×50.0 mg/kg daily, section K

CC(=O)Oc1ccccc1C(=O)O [Acetylsalicylic Acid, acetylsalicylic acid]
ED50 ([1]; Rattus norvegicus): 192 mg/kg
therapeutic ratio ([1]; from ED50 and LD50 (A)): 10.7
1st Phase (paw edema) ([2]; 100.0 mg/kg): 83%
2nd Phase (paw edema) ([2]; 100.0 mg/kg): 114%
3 Hrs. (total paw edema) ([2]; 100.0 mg/kg): 96%
1st Phase (paw edema) ([2]; 200.0 mg/kg): 95%
2nd Phase (paw edema) ([2]; 200.0 mg/kg): 60%
3 Hrs. (total paw edema) ([2]; 200.0 mg/kg): 76%
Notes (analgesic activity) ([3]; up to 400 mg/kg): ineffective
Volume (increase in paw volume, blank control = 100%) ([4]; 150.0 mg/kg): 134%
Pain Threshold (change vs initial value) ([4]; 300.0 mg/kg): -15%
Volume (increase in paw volume, blank control = 100%) ([4]; 300.0 mg/kg): 81%
Granulation Tissue % (Dry Weight) ([5]; 2 × 200 mg/kg daily): 89%
Increase in Body Weight ([5]; 2 × 200 mg/kg daily): not influenced
60 Minutes (paw edema) ([6]; 300.0 mg/kg): 156%
120 Minutes (paw edema) ([6]; 300.0 mg/kg): 93%
180 Minutes (paw edema) ([6]; 300.0 mg/kg): 82%
60 min. (paw edema) ([6]; 300 mg/kg): 156%
120 min. (paw edema) ([6]; 300 mg/kg): 93%
180 min. (paw edema) ([6]; 300 mg/kg): 82%
Granuloma Pouch Dry Weight ([7]; i.g., 2 × 150 mg/kg daily): 88%
Increase in Body Weight ([7]; i.g., 2 × 150 mg/kg daily): not influenced
Secretion ([7]; i.g., 2 × 150 mg/kg daily): 121%

CCCC1C(=O)N2C(N(C)C)=Nc3ccc(C)cc3N2C1=O (stereo not shown) [Azapropazone, 3-Dimethylamino-7-methyl-1,2-(n-propylmalonyl)-1,2-dihydro-1,2-benzotriazine-dihydrate]
1st Phase (paw edema) ([2]; 100.0 mg/kg): 72%
2nd Phase (paw edema) ([2]; 100.0 mg/kg): 50%
3 Hrs. (total paw edema) ([2]; 100.0 mg/kg): 63%
1st Phase (paw edema) ([2]; 400.0 mg/kg): 79%
2nd Phase (paw edema) ([2]; 400.0 mg/kg): 21%
3 Hrs. (total paw edema) ([2]; 400.0 mg/kg): 55%
Notes (analgesic activity) [3]: ineffective
Volume (increase in paw volume, blank control = 100%) ([4]; 250.0 mg/kg): 98%
Pain Threshold (change vs initial value) ([4]; 400.0 mg/kg): -52%
Volume (increase in paw volume, blank control = 100%) ([4]; 400.0 mg/kg): 100%
Granulation Tissue % (Dry Weight) ([5]; 2 × 150 mg/kg daily): 76%
Increase in Body Weight ([5]; 2 × 150 mg/kg daily): not influenced
60 Minutes (paw edema) ([6]; 250.0 mg/kg): 100%
120 Minutes (paw edema) ([6]; 250.0 mg/kg): 93%
180 Minutes (paw edema) ([6]; 250.0 mg/kg): 67%
Swelling [8]: 91%

CCOCCOC(=N)c1sc2ccccc2c1O [Example 11]
change in vivo at 200 mg/kg ([4]; po, ig., 200 mg/kg, section K): 32%
response vs control in vivo at 200 mg/kg ([4]; po, ig., 200 mg/kg, section K, read-out: volume (paw, control = 100%)): 41%
LD50 ([9]; po): > 1600 mg/kg
60 min. (paw edema) ([6]; 50 mg/kg): 40%
120 min. (paw edema) ([6]; 50 mg/kg): 36%
180 min. (paw edema) ([6]; 50 mg/kg): 56%
60 min. (paw edema) ([6]; 100 mg/kg): 22%
120 min. (paw edema) ([6]; 100 mg/kg): 27%
180 min. (paw edema) ([6]; 100 mg/kg): 46%

N=C(NCCN1CCCC1)c1sc2ccccc2c1O [Example 34]
response vs control in vivo at 125 mg/kg ([4]; sc., 125 mg/kg, section K, read-out: volume (paw, control = 100%)): 54%
LD50 ([9]; sc): ~600 mg/kg
granuloma pouch dry weight % [7, 10]: 79%
secretion % [7, 10]: 75%
increase in body weight % ([7]; ig., 2×50.0 mg/kg daily, section K, control 55): 51%

CCOCCCNC(=N)c1sc2ccccc2c1O [Example 41]
change in vivo at 125 mg/kg ([4]; po, ig., 125 mg/kg, section K (control -9)): 22%
response vs control in vivo at 125 mg/kg ([4]; po, ig., 125 mg/kg, section K, read-out: volume (paw, control = 100%)): 51%
granulation tissue % dry weight ([5]; ig., 2×150 mg/kg daily, section K): 90%
increase in body weight % ([5]; ig., 2×150 mg/kg daily, section K, control 36): 29%
LD50 ([9]; po): ~1600 mg/kg
